{
  "source": "ChEMBL document CHEMBL4038308",
  "about": "“Lipophosphonoxins II: Design, Synthesis, and Properties of Novel Broad Spectrum Antibacterial Agents” (J Med Chem, 2017)",
  "key": {"[1]": {"tested_on": "Pseudomonas aeruginosa", "test": "Induction of cytoplasmic membrane permeabilization in Pseudomonas aeruginosa CCM 3955 assessed as increase in propidium iodide fluorescence intensity at 5 mg/L by spectrofluorometric analysis", "format": "functional"}, "[2]": {"tested_on": "Mus musculus", "test": "Toxicity in ICR mouse assessed as mortality up to 2000 mg/kg, po administered as single dose measured for 2 weeks", "format": "organism-based", "settings": "in vivo, 336 h"}, "[3]": {"tested_on": "Escherichia coli", "test": "Bactericidal activity against Escherichia coli CCM 3954 assessed as reduction in bacterial count at 6.25 to 12.5 mg/L after 24 hrs by time kill assay", "format": "functional"}, "[4]": {"tested_on": "Staphylococcus aureus", "test": "Antibacterial activity against Staphylococcus aureus CCM 4223 after 24 hrs by microdilution method", "format": "functional", "settings": "CCM 4223, 24 h"}, "[5]": {"test": "Chemical stability of compound at 50 to 500 mg/L at pH 5 after 24 hrs at 37 degC by LC-MS analysis", "format": "physicochemical", "settings": "buffer, pH 5, 24 h"}, "[6]": {"tested_on": "Bacillus subtilis", "test": "Antibacterial activity against Bacillus subtilis after 24 hrs by microdilution method", "format": "functional"}, "[7]": {"tested_on": "Oryctolagus cuniculus", "test": "Toxicity in topically applied rabbit assessed as skin irritation measured by measuring physiological abnormalities up to 7 days post dose", "settings": "in vivo, topical_or_ocular, 168 h"}, "[8]": {"tested_on": "Bacillus subtilis", "test": "Antibacterial activity against Bacillus subtilis assessed as inhibition of DNA synthesis at 2.5 mg/L after 50 mins by [3H]thymidine incorporation assay", "format": "functional"}, "[9]": {"tested_on": "Acinetobacter baumannii", "test": "Antibacterial activity against Acinetobacter baumannii A3-08 after 24 hrs by microdilution method", "format": "functional", "settings": "A3-08, 24 h"}, "[10]": {"tested_on": "TERT-RPE1", "test": "Cytotoxicity against human RPE1 cells assessed as disruption of cell membrane integrity at >80 mg/L after 4 hrs by CytoTox-ONE-based assay", "settings": "tert-rpe1, 4 h"}, "[11]": {"tested_on": "Staphylococcus aureus", "test": "Bactericidal activity against Staphylococcus aureus CCM 4223 assessed as reduction in bacterial count at 12.5 mg/L after 6 hrs by time kill assay", "format": "functional"}, "[12]": {"tested_on": "Staphylococcus aureus", "test": "Induction of cytoplasmic membrane permeabilization in Staphylococcus aureus CCM 4223 assessed as increase in propidium iodide fluorescence intensity at 5 mg/L by spectrofluorometric analysis", "format": "functional"}, "[13]": {"tested_on": "Escherichia coli", "test": "Antibacterial activity against Escherichia coli CCM 3954 after 24 hrs by microdilution method", "format": "functional", "settings": "CCM 3954, 24 h"}, "[14]": {"tested_on": "HepG2", "test": "Induction of apoptosis in human HepG2 cells assessed as caspase 3/7 activation up to 80 mg/L after 4 hrs by caspase-Glo 3/7 luminescent assay", "format": "cell-based", "settings": "hepg2, 4 h"}, "[15]": {"test": "Chemical stability of compound at 50 to 500 mg/L at pH 5 after 24 hrs at room temperature by LC-MS analysis", "format": "physicochemical", "settings": "buffer, pH 5, 24 h"}, "[16]": {"test": "Chemical stability of compound at 50 to 500 mg/L at pH 0.18 after 24 hrs at room temperature by LC-MS analysis", "format": "physicochemical", "settings": "buffer, pH 0.18, 24 h"}, "[17]": {"tested_on": "Staphylococcus aureus", "test": "Bactericidal activity against Staphylococcus aureus CCM 4223 assessed as reduction in bacterial count at 25 mg/L after 5 hrs by time kill assay", "format": "functional"}, "[18]": {"tested_on": "Escherichia coli", "test": "Induction of cytoplasmic membrane permeabilization in Escherichia coli CCM 3954 assessed as increase in propidium iodide fluorescence intensity at 5 mg/L by spectrofluorometric analysis", "format": "functional"}, "[19]": {"tested_on": "Staphylococcus aureus", "test": "Bactericidal activity against Staphylococcus aureus CCM 4223 assessed as reduction in bacterial count at 6.25 to 25 mg/L after 15 mins by time kill assay", "format": "functional"}, "[20]": {"test": "Apparent permeability across apical to basolateral side in human Caco2 cells at 200 uM after 3 hrs by LC-MS analysis", "format": "ADME, cell-based", "settings": "caco-2, 3 h"}, "[21]": {"tested_on": "Lipid bilayer", "test": "Binding affinity to DOPG large unilamellar vesicle assessed as carboxyfluorescein leakage at 10 mg/L after 20 secs by fluorescence-based assay relative to control"}, "[22]": {"tested_on": "Staphylococcus epidermidis", "test": "Antibacterial activity against Staphylococcus epidermidis 8700/B after 24 hrs by microdilution method", "format": "functional"}, "[23]": {"tested_on": "Stenotrophomonas maltophilia", "test": "Antibacterial activity against Stenotrophomonas maltophilia S2-23 after 24 hrs by microdilution method", "format": "functional", "settings": "S2-23, 24 h"}, "[24]": {"tested_on": "Escherichia coli", "test": "Bactericidal activity against Escherichia coli CCM 3954 assessed as reduction in bacterial count at 6.25 to 25 mg/L after 45 mins by time kill assay", "format": "functional"}, "[25]": {"test": "Chemical stability of compound at 50 to 500 mg/L at pH 0.18 after 24 hrs at 37 degC by LC-MS analysis", "format": "physicochemical", "settings": "buffer, pH 0.18, 24 h"}, "[26]": {"tested_on": "Bacillus subtilis", "test": "Antibacterial activity against Bacillus subtilis assessed as inhibition of plasma membrane lipids synthesis at 2.5 mg/L after 50 mins by [3H]-sodium acetate incorporation assay", "format": "functional"}, "[27]": {"test": "Chemical stability of compound at 50 to 500 mg/L at pH 8.8 after 24 hrs at 37 degC by LC-MS analysis", "format": "physicochemical", "settings": "buffer, pH 8.8, 24 h"}, "[28]": {"tested_on": "HepG2", "test": "Cytotoxicity against human HepG2 cells assessed as disruption of cell membrane integrity after 4 hrs by CytoTox-ONE-based assay", "settings": "hepg2, 4 h"}, "[29]": {"tested_on": "Enterococcus faecalis", "test": "Antibacterial activity against Enterococcus faecalis CCM 4224 after 24 hrs by microdilution method", "format": "functional", "settings": "CCM 4224, 24 h"}, "[30]": {"tested_on": "Mus musculus", "test": "Toxicity in ICR mouse assessed as body weight loss up to 2000 mg/kg, po administered as single dose measured for 2 weeks", "format": "organism-based", "settings": "in vivo, 336 h"}, "[31]": {"tested_on": "Pseudomonas aeruginosa", "test": "Antibacterial activity against Pseudomonas aeruginosa 16575 after 24 hrs by microdilution method", "format": "functional", "settings": "Pseudomonas aeruginosa, 16575, 24 h"}, "[32]": {"test": "Critical micellar concentration of the compound by capillary electrophoresis method"}, "[33]": {"tested_on": "TERT-RPE1", "test": "Cytotoxicity against human RPE1 cells assessed as reduction in cell viability after 48 hrs by ATPlite reagent based assay", "settings": "tert-rpe1, 48 h"}, "[34]": {"tested_on": "Streptococcus agalactiae", "test": "Antibacterial activity against Streptococcus agalactiae after 24 hrs by microdilution method", "format": "functional"}, "[35]": {"test": "Chemical stability of compound at 50 to 500 mg/L at pH 8.8 after 24 hrs at room temperature by LC-MS analysis", "format": "physicochemical", "settings": "buffer, pH 8.8, 24 h"}, "[36]": {"tested_on": "Staphylococcus aureus", "test": "Bactericidal activity against Staphylococcus aureus CCM 4223 assessed as reduction in bacterial count at 6.25 mg/L after 6 to 24 hrs by time kill assay", "format": "functional"}, "[37]": {"tested_on": "Bacillus subtilis", "test": "Antibacterial activity against Bacillus subtilis assessed as inhibition of RNA synthesis at 2.5 mg/L after 50 mins by [3H]-uridine incorporation assay", "format": "functional"}, "[38]": {"tested_on": "Salmonella enteritidis", "test": "Antibacterial activity against Salmonella enteritidis S2-25 after 24 hrs by microdilution method", "format": "functional, Salmonella enterica subsp. enterica serovar Enteritidis", "settings": "Salmonella enterica, S2-25, 24 h"}, "[39]": {"tested_on": "J774.A1", "test": "Cytotoxicity against mouse J774A.1 cells assessed as damage to cell membrane by measuring propidium iodide intake at 5 mg/L by spectrofluorometric analysis", "format": "cell-based"}, "[40]": {"tested_on": "Staphylococcus haemolyticus", "test": "Antibacterial activity against fluoroquinolne-resistant Staphylococcus haemolyticus 16568 after 24 hrs by microdilution method", "format": "functional", "settings": "Staphylococcus haemolyticus, 16568, 24 h"}, "[41]": {"tested_on": "Staphylococcus aureus", "test": "Antibacterial activity against methicillin-resistant Staphylococcus aureus 4591 clinical isolates after 24 hrs by microdilution method", "format": "functional", "settings": "Staphylococcus aureus, 4591, 24 h"}, "[42]": {"test": "Pore forming activity across black lipid bilayer membranes assessed as induction of variation in membrane current by measuring pore conductance at 5 ug/ml"}},
  "note": "Active and inactive are the calls of the source. The calls are words filed in the database; no cut-off is given here.",
  "data": [
    {"smiles": "CCCCCCCCCCCCCCOP(=O)(CCN(CCCN)CCCN)OC[C@H]1O[C@@H](n2ccc(=O)[nH]c2=O)[C@H](O)[C@@H]1O", "note": "(some centres not stated)", "values": [
      {"measurement": "Activity", "setting": "[1]", "result": "Active"},
      {"measurement": "Activity", "setting": "[2]", "result": "Non-Toxic"},
      {"measurement": "Activity", "setting": "[3]", "result": "Active"},
      {"measurement": "MIC", "setting": "[4]", "result": 6.25, "unit": "µg/mL"},
      {"measurement": "Stability", "setting": "[5]", "result": "Stable"},
      {"measurement": "MIC", "setting": "[6]", "result": 0.78, "unit": "µg/mL"},
      {"measurement": "Activity", "setting": "[7]", "result": "Non-Toxic"},
      {"measurement": "inhibition", "setting": "[8]", "result": "inactive"},
      {"measurement": "MIC", "setting": "[9]", "result": 12.5, "unit": "µg/mL"},
      {"measurement": "Activity", "setting": "[10]", "result": "Non-Toxic"},
      {"measurement": "Activity", "setting": "[11]", "result": "Active"},
      {"measurement": "Activity", "setting": "[12]", "result": "Active"},
      {"measurement": "MIC", "setting": "[13]", "result": 6.25, "unit": "µg/mL"},
      {"measurement": "Activity", "setting": "[14]", "result": "Non-Toxic"},
      {"measurement": "Stability", "setting": "[15]", "result": "Stable"},
      {"measurement": "Stability", "setting": "[16]", "result": "Stable"},
      {"measurement": "Activity", "setting": "[17]", "result": "Active"},
      {"measurement": "Activity", "setting": "[18]", "result": "Active"},
      {"measurement": "Activity", "setting": "[19]", "result": "Active"},
      {"measurement": "permeability", "setting": "[20]", "result": "Impermeable"},
      {"measurement": "Activity", "setting": "[21]", "result": "Active"},
      {"measurement": "MIC", "setting": "[22]", "result": 1.56, "unit": "µg/mL"},
      {"measurement": "MIC", "setting": "[23]", "result": 12.5, "unit": "µg/mL"},
      {"measurement": "Activity", "setting": "[24]", "result": "Active"},
      {"measurement": "Stability", "setting": "[25]", "result": "Stable"},
      {"measurement": "inhibition", "setting": "[26]", "result": "inactive"},
      {"measurement": "Stability", "setting": "[27]", "result": "Stable"},
      {"measurement": "Activity", "setting": "[28]", "result": "Non-Toxic"},
      {"measurement": "MIC", "setting": "[29]", "result": 25, "unit": "µg/mL"},
      {"measurement": "Activity", "setting": "[30]", "result": "Non-Toxic"},
      {"measurement": "MIC", "setting": "[31]", "result": 1.56, "unit": "µg/mL"},
      {"measurement": "CMC", "setting": "[32]", "result": 4.55, "unit": "mM"},
      {"measurement": "Activity", "setting": "[33]", "result": 43, "unit": "mg/L"},
      {"measurement": "MIC", "setting": "[34]", "result": 3.13, "unit": "µg/mL"},
      {"measurement": "Stability", "setting": "[35]", "result": "Stable"},
      {"measurement": "Activity", "setting": "[36]", "result": "Active"},
      {"measurement": "inhibition", "setting": "[37]", "result": "inactive"},
      {"measurement": "MIC", "setting": "[38]", "result": 3.13, "unit": "µg/mL"},
      {"measurement": "Activity", "setting": "[39]", "result": "Non-Toxic"},
      {"measurement": "MIC", "setting": "[40]", "result": 1.56, "unit": "µg/mL"},
      {"measurement": "MIC", "setting": "[41]", "result": 6.25, "unit": "µg/mL"},
      {"measurement": "Activity", "setting": "[42]", "result": "73 to 151", "unit": "pS"}
    ]}
  ]
}
